Values quoted from earlier work, collected in patent publication US20090130200A1, “GRANULES FOR CONTROLLED RELEASE OF TAMSULOSIN” (SIEGFRIED GENERICS INTERNATIONAL AG, priority 2004, published 2009).
Counter-ions that a name gives are not always drawn.

CCOc1ccccc1OCCN[C@H](C)Cc1ccc(OC)c(S(N)(=O)=O)c1 [Tamsulosin hydrochloride]
solubility in water: only slightly soluble in water
